Experimental data reported in patent US12552854B2, “Peptides that block presentation of antigenic islet peptides by HLA-DQ8 and methods for treating type-1 diabetes” (Icahn School of Medicine at Mount Sinai, priority 2019, dated 2026).
Entries after “also recorded” stand apart in the source; their conditions may differ.

System: splenocytes isolated from SJL-DQ8 mice
Assay: Ex vivo CFSE T-cell proliferation, splenocytes of InsB:9-23-immunized SJL-DQ8 mice
Type: cell-based, mouse
Conditions: all peptides at 50 μg/ml; 5 days
From the text: ID NO: 23) and reverse primer [NT]

## CC(C)C[C@@H](NC(=O)[C@@H](Cc1ccc(O)cc1)NC(=O)[C@@H](CC(C)C)NC(=O)[C@H](NC(=O)[C@@H](CS)NC(=O)CNC(=O)[C@@H](CCC(=O)O)NC(=O)[C@@H](CCCNC(=N)N)NC(=O)CNC(=O)CN)C(C)C)C(=O)N[C@H](C)C(=O)N[C@H](CCC(=O)O)C(=O)N[C@@H](C(=O)NCC(=O)NCC(=O)O)C(C)C [RI-CT]
  T-cell proliferation induced by InsB:9-23 (CFSE assay), SJL-DQ8 splenocytes: significantly suppressed; also recorded: significantly decreased
